Numbered stars: 1 amine (or outer) side, 2 acyl side, 3 side chain; on linkers, the order of the positions; unused ones are H or OH. Bridge positions count the residues as written; N and C are the ends. Square brackets hold non-standard residues; d marks the D form. Peptide text beside a SMILES is read from it. * marks the point of attachment. ξ: configuration not given here. Phe(4-COOH) = N[C@@H](Cc1ccc(C(=O)O)cc1)C(=O)O; Bip = N[C@@H](Cc1ccc(-c2ccccc2)cc1)C(=O)O; Phe(3-F) = N[C@@H](Cc1cccc(F)c1)C(=O)O; Phe(3-Me) = Cc1cccc(C[C@H](N)C(=O)O)c1; X5 = CC(C)(CCN)[C@H](N[*:1])C(=O)[*:2]; NH(CH2)12COOH = O=C(O)CCCCCCCCCCCCN*; Val(3-OH) = CC(C)(O)[C@H](N)C(=O)O; X17 = O=C(C(CN1CCOCC1)N[*:1])[*:2]; X8 = CC(C)(F)C(N[*:1])C(=O)[*:2]; Cha = N[C@@H](CC1CCCCC1)C(=O)O; Thr(3ξ) = CC(O)[C@H](N)C(=O)O; Carboxymethyl = O=C(O)C*; Orn = NCCC[C@H](N)C(=O)O; Aun = NCCCCCCCCCCC(=O)O; Dab = NCC[C@H](N)C(=O)O; Dap = NC[C@H](N)C(=O)O; AEEA = NCCOCCOCC(=O)O
Molecular target: T1, PD-1/PD-L1 interaction (PE-labeled human PD-L1-Ig binding to Jurkat cell line over-expressing human PD-1) (Homo sapiens, UniProt Q15116)
T1 construct: expressed in transfected cells; host or cells: Jurkat
T1 sequence (Q15116 25-288): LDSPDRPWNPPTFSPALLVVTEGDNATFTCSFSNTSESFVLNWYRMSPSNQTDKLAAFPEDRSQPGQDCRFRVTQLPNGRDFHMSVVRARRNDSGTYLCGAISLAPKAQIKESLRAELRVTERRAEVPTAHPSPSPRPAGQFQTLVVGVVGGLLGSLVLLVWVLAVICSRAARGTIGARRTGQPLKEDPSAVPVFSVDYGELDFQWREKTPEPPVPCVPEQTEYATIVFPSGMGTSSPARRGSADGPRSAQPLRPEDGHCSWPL
Experiment: Jurkat-PD-1 Cell Binding High-Content Screening Assay (CBA)
Assay type: cell-based
Conditions: Jurkat cell line over-expressing human PD-1; PE-labeled PD-L1-Ig 20 nM final; read-out: Jurkat hPD1-PDL1 IC50
Procedure, shortened: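 Binding of fluorescent PD-L1-Ig (20 nM final) to Jurkat-PD-1 cells was measured by automated imaging after 1 h, following a 2 h compound pre-treatment at 37° C.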

| IC50 | SMILES |
| --- | --- |
| 9.4 nM | Cc1cccc(C[C@@H]2NC(=O)[C@H](CC(=O)O)NC(=O)[C@H](Cc3ccc(OCC(=O)O)cc3)NC(=O)C(CN3CCOCC3)NC(=O)CSC[C@@H](C(=O)N[C@@H](CCN)C(=O)NCCCCCCCCCCCCC(=O)O)NC(=O)[C@H](CO)NC(=O)[C@H](C(C)(C)O)NC(=O)[C@H](CC3CCCCC3)NC(=O)[C@H](CCN)NC(=O)[C@@H](CC(C)C)NC(=O)[C@H](CCCN)NC(=O)[C@H](Cc3ccc(OCC(=O)O)cc3)NC(=O)[C@H](Cc3ccc(-c4ccccc4)cc3)NC(=O)[C@H](Cc3ccc(OCC(=O)O)cc3)NC2=O)c1 (stereo partly drawn) [Compound 2260] ({CH2CO}-[X17]Y(Carboxymethyl)D[Phe(3-Me)]Y(Carboxymethyl)[Bip]Y(Carboxymethyl)[Orn][dL][Dab][Cha][Val(3-OH)]SC[Dab]-{NH(CH2)12COOH}; thioether N-14) |
| 207 nM | Cc1cccc(C[C@@H]2NC(=O)[C@H](CC(=O)O)NC(=O)[C@H](Cc3ccc(OCC(=O)O)cc3)NC(=O)[C@H](CCN)NC(=O)CSC[C@@H](C(=O)N[C@H](C(=O)NCCCCCCCCCCC(=O)O)C(C)(C)CCN)NC(=O)[C@H](CO)NC(=O)[C@H](C(C)(C)O)NC(=O)[C@H](CC3CCCCC3)NC(=O)[C@H](CCN)NC(=O)[C@@H](CC(C)C)NC(=O)[C@H](CCCN)NC(=O)[C@H](Cc3ccc(OCC(=O)O)cc3)NC(=O)[C@H](Cc3ccc(-c4ccccc4)cc3)NC(=O)[C@H](Cc3ccc(OCC(=O)O)cc3)NC2=O)c1 [Compound 2261] ({CH2CO}-[Dab]Y(Carboxymethyl)D[Phe(3-Me)]Y(Carboxymethyl)[Bip]Y(Carboxymethyl)[Orn][dL][Dab][Cha][Val(3-OH)]SC[X5][Aun]-OH; thioether N-14) |
| 8.3 nM | Cc1cccc(C[C@@H]2NC(=O)[C@H](CC(=O)O)NC(=O)[C@H](Cc3ccc(OCC(=O)O)cc3)NC(=O)[C@H](CN)NC(=O)CSC[C@@H](C(=O)N[C@@H](CCN)C(=O)NCCOCCOCC(=O)NCCCCCCCCCCC(=O)O)NC(=O)[C@H](CCCN)NC(=O)[C@H](C(C)C)NC(=O)[C@H](CC3CCCCC3)NC(=O)[C@H](CCN)NC(=O)[C@@H](CC(C)C)NC(=O)[C@H](CCCN)NC(=O)[C@H](Cc3ccc(O)cc3)NC(=O)[C@H](Cc3ccc(-c4ccccc4)cc3)NC(=O)[C@H](Cc3cccc(F)c3)NC2=O)c1 [Compound 2262] ({CH2CO}-[Dap]Y(Carboxymethyl)D[Phe(3-Me)][Phe(3-F)][Bip]Y[Orn][dL][Dab][Cha]V[Orn]C[Dab][AEEA][Aun]-OH; thioether N-14) |
| 38.2 nM | Cc1cccc(C[C@@H]2NC(=O)[C@H](CC(=O)O)NC(=O)[C@H](Cc3ccc(OCC(=O)O)cc3)NC(=O)[C@H](Cc3ccc(OCC(=O)O)cc3)NC(=O)CSC[C@@H](C(=O)N[C@@H](CCN)C(=O)NCCCCCCCCCCC(=O)O)NC(=O)[C@H](C(C)O)NC(=O)[C@H](C(C)C)NC(=O)[C@H](CC3CCCCC3)NC(=O)[C@H](CCN)NC(=O)[C@@H](CC(C)C)NC(=O)[C@H](CCCN)NC(=O)[C@H](Cc3ccc(OCC(=O)O)cc3)NC(=O)[C@H](Cc3ccc(-c4ccccc4)cc3)NC(=O)[C@H](C(C)C)NC2=O)c1 (stereo partly drawn) [Compound 2263] ({CH2CO}-Y(Carboxymethyl)Y(Carboxymethyl)D[Phe(3-Me)]V[Bip]Y(Carboxymethyl)[Orn][dL][Dab][Cha]V[Thr(3ξ)]C[Dab][Aun]-OH; thioether N-14) |
| 13.1 nM | Cc1cccc(C[C@@H]2NC(=O)[C@H](CC(=O)O)NC(=O)[C@H](Cc3ccc(OCC(=O)O)cc3)NC(=O)[C@H](CCCNC(=N)N)NC(=O)CSC[C@@H](C(=O)N[C@@H](CCN)C(=O)NCCCCCCCCCCC(=O)O)NC(=O)[C@H]([C@@H](C)O)NC(=O)C(C(C)(C)F)NC(=O)[C@H](CC3CCCCC3)NC(=O)[C@H](CCN)NC(=O)[C@@H](CC(C)C)NC(=O)[C@H](CCCN)NC(=O)[C@H](Cc3ccc(OCC(=O)O)cc3)NC(=O)[C@H](Cc3ccc(-c4ccccc4)cc3)NC(=O)[C@H](Cc3ccc(O)cc3)NC2=O)c1 (stereo partly drawn) [Compound 2264] ({CH2CO}-RY(Carboxymethyl)D[Phe(3-Me)]Y[Bip]Y(Carboxymethyl)[Orn][dL][Dab][Cha][X8]TC[Dab][Aun]-OH; thioether N-14) |
| 28.4 nM | CC(C)C[C@H]1NC(=O)[C@H](CCCN)NC(=O)[C@H](Cc2ccc(O)cc2)NC(=O)[C@H](Cc2ccc(-c3ccccc3)cc2)NC(=O)[C@H](Cc2ccc(O)cc2)NC(=O)[C@H](Cc2c[nH]c3ccccc23)NC(=O)[C@H](CC(=O)O)NC(=O)[C@H](Cc2ccc(C(=O)O)cc2)NC(=O)[C@H](Cc2ccc(OCC(=O)O)cc2)NC(=O)CSC[C@@H](C(=O)N[C@@H](CCN)C(=O)NCCOCCOCC(=O)NCCCCCCCCCCC(=O)O)NC(=O)[C@H](CCCCN)NC(=O)[C@H](Cc2ccc(O)cc2)NC(=O)[C@H](CC2CCCCC2)NC(=O)[C@H](CCN)NC1=O [Compound 2501] ({CH2CO}-Y(Carboxymethyl)[Phe(4-COOH)]DWY[Bip]Y[Orn][dL][Dab][Cha]YKC[Dab][AEEA][Aun]-OH; thioether N-14) |
| 21.2 nM | CC(C)C[C@H]1NC(=O)[C@H](CCCN)NC(=O)[C@H](Cc2ccc(O)cc2)NC(=O)[C@H](Cc2ccc(-c3ccccc3)cc2)NC(=O)[C@H](Cc2ccc(O)cc2)NC(=O)[C@H](Cc2c[nH]c3ccccc23)NC(=O)[C@H](CC(=O)O)NC(=O)[C@H](Cc2ccc(OCC(=O)O)cc2)NC(=O)[C@H](Cc2ccc(OCC(=O)O)cc2)NC(=O)CSC[C@@H](C(=O)N[C@@H](CCN)C(=O)NCCOCCOCC(=O)NCCCCCCCCCCC(=O)O)NC(=O)[C@H](CCCNC(=N)N)NC(=O)[C@H](Cc2ccc(O)cc2)NC(=O)[C@H](CC2CCCCC2)NC(=O)[C@H](CCN)NC1=O [Compound 2502] ({CH2CO}-Y(Carboxymethyl)Y(Carboxymethyl)DWY[Bip]Y[Orn][dL][Dab][Cha]YRC[Dab][AEEA][Aun]-OH; thioether N-14) |
| 39.9 nM | CC(C)C[C@H]1NC(=O)[C@H](CCCN)NC(=O)[C@H](Cc2ccc(O)cc2)NC(=O)[C@H](Cc2ccc(-c3ccccc3)cc2)NC(=O)[C@H](Cc2ccc(O)cc2)NC(=O)[C@H](Cc2c[nH]c3ccccc23)NC(=O)[C@H](CC(=O)O)NC(=O)[C@H](Cc2ccc(OCC(=O)O)cc2)NC(=O)[C@H](CN)NC(=O)CSC[C@@H](C(=O)N[C@@H](CCN)C(=O)NCCOCCOCC(=O)NCCCCCCCCCCC(=O)O)NC(=O)[C@H](CCCCN)NC(=O)[C@H](Cc2ccc(O)cc2)NC(=O)[C@H](CC2CCCCC2)NC(=O)[C@H](CCN)NC1=O [Compound 2503] ({CH2CO}-[Dap]Y(Carboxymethyl)DWY[Bip]Y[Orn][dL][Dab][Cha]YKC[Dab][AEEA][Aun]-OH; thioether N-14) |
| 37.4 nM | Cc1cccc(C[C@@H]2NC(=O)[C@H](CC(=O)O)NC(=O)[C@H](Cc3ccc(OCC(=O)O)cc3)NC(=O)[C@H](CN)NC(=O)CSC[C@@H](C(=O)N[C@@H](CCN)C(=O)NCCOCCOCC(=O)NCCCCCCCCCCC(=O)O)NC(=O)[C@H](CN)NC(=O)[C@H](Cc3ccc(O)cc3)NC(=O)[C@H](CC3CCCCC3)NC(=O)[C@H](CCN)NC(=O)[C@@H](CC(C)C)NC(=O)[C@H](CCCN)NC(=O)[C@H](Cc3ccc(O)cc3)NC(=O)[C@H](Cc3ccc(-c4ccccc4)cc3)NC(=O)[C@H](Cc3ccc(O)cc3)NC2=O)c1 [Compound 2504] ({CH2CO}-[Dap]Y(Carboxymethyl)D[Phe(3-Me)]Y[Bip]Y[Orn][dL][Dab][Cha]Y[Dap]C[Dab][AEEA][Aun]-OH; thioether N-14) |
| 20.9 nM | Cc1cccc(C[C@@H]2NC(=O)[C@H](CC(=O)O)NC(=O)[C@H](Cc3ccc(OCC(=O)O)cc3)NC(=O)[C@H](CN)NC(=O)CSC[C@@H](C(=O)N[C@@H](CCN)C(=O)NCCOCCOCC(=O)NCCCCCCCCCCC(=O)O)NC(=O)[C@H](CCCN)NC(=O)[C@H](Cc3ccc(O)cc3)NC(=O)[C@H](CC3CCCCC3)NC(=O)[C@H](CCN)NC(=O)[C@@H](CC(C)C)NC(=O)[C@H](CCCN)NC(=O)[C@H](Cc3ccc(O)cc3)NC(=O)[C@H](Cc3ccc(-c4ccccc4)cc3)NC(=O)[C@H](Cc3ccc(O)cc3)NC2=O)c1 [Compound 2505] ({CH2CO}-[Dap]Y(Carboxymethyl)D[Phe(3-Me)]Y[Bip]Y[Orn][dL][Dab][Cha]Y[Orn]C[Dab][AEEA][Aun]-OH; thioether N-14) |
| 32.4 nM | Cc1cccc(C[C@@H]2NC(=O)[C@H](CC(=O)O)NC(=O)[C@H](Cc3ccc(OCC(=O)O)cc3)NC(=O)[C@H](CN)NC(=O)CSC[C@@H](C(=O)N[C@@H](CCN)C(=O)NCCOCCOCC(=O)NCCCCCCCCCCC(=O)O)NC(=O)[C@H](CCCNC(=N)N)NC(=O)[C@H](Cc3ccc(O)cc3)NC(=O)[C@H](CC3CCCCC3)NC(=O)[C@H](CCN)NC(=O)[C@@H](CC(C)C)NC(=O)[C@H](CCCN)NC(=O)[C@H](Cc3ccc(O)cc3)NC(=O)[C@H](Cc3ccc(-c4ccccc4)cc3)NC(=O)[C@H](Cc3ccc(O)cc3)NC2=O)c1 [Compound 2506] ({CH2CO}-[Dap]Y(Carboxymethyl)D[Phe(3-Me)]Y[Bip]Y[Orn][dL][Dab][Cha]YRC[Dab][AEEA][Aun]-OH; thioether N-14) |
| 72.1 nM | CC(C)C[C@H]1NC(=O)[C@H](CCCN)NC(=O)[C@H](Cc2ccc(O)cc2)NC(=O)[C@H](Cc2ccc(-c3ccccc3)cc2)NC(=O)[C@H](Cc2ccc(O)cc2)NC(=O)[C@H](Cc2c[nH]c3ccccc23)NC(=O)[C@H](CC(=O)O)NC(=O)[C@H](Cc2ccc(C(=O)O)cc2)NC(=O)[C@H](Cc2ccc(OCC(=O)O)cc2)NC(=O)CSC[C@@H](C(=O)N[C@@H](CCN)C(=O)NCCCCCCCCCCC(=O)O)NC(=O)[C@H](CCCCN)NC(=O)[C@H](Cc2ccc(O)cc2)NC(=O)[C@H](CC2CCCCC2)NC(=O)[C@H](CCN)NC1=O [Compound 2507] ({CH2CO}-Y(Carboxymethyl)[Phe(4-COOH)]DWY[Bip]Y[Orn][dL][Dab][Cha]YKC[Dab][Aun]-OH; thioether N-14) |
